Results taken from ChEMBL document CHEMBL1697781, “Assessment of the health effects of chemicals in humans: II. Construction of an adverse effects database for QSAR modeling” (Curr Drug Discov Technol, 2004).

Assays:
Settings in all cases: human; call rule not given here
Hepatotoxicity [1] = assay: FDA HLAED, liver enzyme composite activity
Hepatotoxicity [2] = assay: FDA HLAED, serum glutamic pyruvic transaminase (SGPT) increase
Hepatotoxicity [3] = assay: FDA HLAED, lactate dehydrogenase (LDH) increase
Hepatotoxicity [4] = assay: FDA HLAED, alkaline phosphatase increase
Hepatotoxicity [5] = assay: FDA HLAED, gamma-glutamyl transferase (GGT) increase
Hepatotoxicity [6] = assay: FDA HLAED, serum glutamic oxaloacetic transaminase (SGOT) increase
Throughout, for GGT Increase - Index Value: reference of the scale not given here.
Throughout, for LDH Increase - Index Value: reference of the scale not given here.

SMILES | Composite Activity - Active (Hepatotoxicity [1]) | Composite Activity - Marginal (Hepatotoxicity [1]) | Composite Activity - Score (Hepatotoxicity [1]) | SGPT Increase - Activity Score (Hepatotoxicity [2]) | SGPT Increase - Index Value (Hepatotoxicity [2]) | SGPT Increase - Number of Reports (Hepatotoxicity [2]) | LDH Increase - Activity Score (Hepatotoxicity [3]) | LDH Increase - Index Value (Hepatotoxicity [3]) | LDH Increase - Number of Reports (Hepatotoxicity [3]) | Alkaline Phosphatase Increase - Activity Score (Hepatotoxicity [4]) | Alkaline Phosphatase Increase - Index Value (Hepatotoxicity [4]) | Alkaline Phosphatase Increase - Number of Reports (Hepatotoxicity [4]) | GGT Increase - Activity Score (Hepatotoxicity [5]) | GGT Increase - Index Value (Hepatotoxicity [5]) | GGT Increase - Number of Reports (Hepatotoxicity [5]) | SGOT Increase - Activity Score (Hepatotoxicity [6]) | SGOT Increase - Index Value (Hepatotoxicity [6]) | SGOT Increase - Number of Reports (Hepatotoxicity [6]) | also measured
CN(N=O)C(=O)N[C@@H](C=O)[C@@H](O)[C@H](O)[C@H](O)CO [STREPTOZOCIN] | 0 | 0 | Inactive | Inactive | 0 | < 4 | Inactive | 0 | < 4 | Inactive | 11.8 | < 4 | Inactive | 0 | < 4 | Inactive | 0 | < 4 | 
Clc1ccc(CSC(Cn2ccnc2)c2ccc(Cl)cc2Cl)cc1 (configuration not stated) [SULCONAZOLE] |  |  |  | Inactive | 0 | < 4 | Inactive | 0 | < 4 | Inactive | 0 | < 4 | Inactive | 0 | < 4 | Inactive | 0 | < 4 | Composite Activity - Active (Hepatotoxicity [1]; Liver): 0; Composite Activity - Marginal (Hepatotoxicity [1]; Liver): 0; Composite Activity - Score (Hepatotoxicity [1]; Liver): Inactive
CC(C(=O)O)c1ccc(C(=O)c2cccs2)cc1 (configuration not stated) [SUPROFEN] | 0 | 0 | Inactive | Inactive | 0 | < 4 | Inactive | 0 | < 4 | Inactive | 6.1 | < 4 | Inactive | 0 | < 4 | Inactive | 6.1 | < 4 | 
Nc1c2c(nc3ccccc13)CCCC2 [TACRINE] |  |  |  | Active | 170 | >= 4 | Active | 19 | >= 4 | Active | 14.1 | >= 4 | Active | 17.4 | >= 4 | Active | 58.1 | >= 4 | Composite Activity - Active (Hepatotoxicity [1]; Liver): 5; Composite Activity - Marginal (Hepatotoxicity [1]; Liver): 0; Composite Activity - Score (Hepatotoxicity [1]; Liver): Active
CCOC(=O)c1ccc(C#Cc2ccc3c(c2)C(C)(C)CCS3)nc1 [TAZAROTENE] | 0 | 0 | Inactive | Inactive | 0 | < 4 | Inactive | 0 | < 4 | Inactive | 0 | < 4 | Inactive | 0 | < 4 | Inactive | 0 | < 4 | 
COc1cc([C@@H]2c3cc4c(cc3[C@@H](O[C@@H]3O[C@@H]5CO[C@@H](c6cccs6)O[C@H]5[C@H](O)[C@H]3O)[C@H]3COC(=O)[C@H]23)OCO4)cc(OC)c1O [TENIPOSIDE] | 0 | 0 | Inactive | Inactive | 0 | < 4 | Inactive | 0 | < 4 | Inactive | 0 | < 4 | Inactive | 0 | < 4 | Inactive | 0 | < 4 | 
COc1cc2nc(N3CCN(C(=O)C4CCCO4)CC3)nc(N)c2cc1OC (configuration not stated) [TERAZOSIN] | 0 | 0 | Inactive | Inactive | 1.3 | >= 4 | Inactive | 0.5 | < 4 | Inactive | 0.5 | < 4 | Inactive | 0.8 | < 4 | Inactive | 1.6 | >= 4 | 
CN(C/C=C/C#CC(C)(C)C)Cc1cccc2ccccc12 [TERBINAFINE] | 0 | 1 | Inactive | Inactive | 2.8 | >= 4 | Inactive | 1.1 | >= 4 | Inactive | 1.1 | >= 4 | Inactive | 2.6 | >= 4 | Marginally Active | 3.1 | >= 4 | 
CC(C)N1CCN(c2ccc(OCC3COC(Cn4cncn4)(c4ccc(Cl)cc4Cl)O3)cc2)CC1 (configuration not stated) [TERCONAZOLE] | 0 | 0 | Inactive | Inactive | 0 | < 4 | Inactive | 0 | < 4 | Inactive | 0 | < 4 | Inactive | 0 | < 4 | Inactive | 0 | < 4 | 
